The subject of assay [1] is IL6 production in RAW 264.7 macrophage cell line. Kind of assay: Mouse IL6 quantification assay (LPS-stimulated macrophages, ELISA). As to conditions: RAW264.7, RAW 264.7 murine leukemia virus transformed macrophage cell lines, LPS stimulation, read-out: IL-6 % Inhibition at 30 μM. Format: cell-based. (ELISA stands for enzyme-linked immunosorbent assay.)
Assay [2] deals with TNFα production in RAW 264.7 macrophage cell line. Put plainly: Mouse TNF alpha quantification assay (LPS-stimulated macrophages, ELISA). Format: cell-based. As to conditions: RAW264.7, RAW 264.7 murine leukemia virus transformed macrophage cell lines, LPS stimulation, read-out: TNF-α % Inhibition at 30 μM.

Consider 55 compounds from patent US10940139B2, “Compounds that interact with the Ras superfamily for the treatment of cancers, inflammatory diseases, rasopathies, and fibrotic disease” (Shy Therapeutics LLC, priority 2017, dated 2021).

The term inhibition denotes the change of the read-out against control, counted positive when it falls. Consider `COCCNc1nc(-c2nccn2C)nc2sc(-c3ccccc3Cl)c(-c3ccccc3)c12` [drawing 2408], for which the inhibition at 30 µM in assay [1] and in assay [2] was 1 to 25% in each case.

Take `O=C(CN1CCN(c2nc(-c3ccccn3)nc3scc(-c4ccccc4)c23)CC1)NC1CC1` [drawing 2158]: the inhibition at 30 µM in assay [1] was in the range of 76 to 100%; in assay [2] it was 26 to 50%.

`COc1ccnc(-c2nc(O)c3c(C(F)(F)F)csc3n2)c1` [drawing 2226]: the results for the inhibition at 30 µM in assay [1] and in assay [2] were 51 to 75% and 1 to 25%, respectively.

For the compound `O=C(Nc1nnc(-c2ccccn2)[nH]1)C1=NOC(c2ccccc2)C1` (centres unmarked) [drawing 1992], the inhibition at 30 µM in assay [1] lay within 26 to 50%; in assay [2], 1 to 25%.

Consider `O=C(Nc1nnc(-c2ccccn2)[nH]1)c1cccc(NC(=O)C2CCCO2)c1` (centres unmarked) [drawing 1961], for which the inhibition at 30 µM in assay [1] was 1 to 25%; in assay [2], 0%.

In the case of `COCCNc1nc(-c2ccccn2)nc2scc(-c3ccccc3)c12` [drawing 2161], the inhibition at 30 µM in assay [1] and in assay [2] was 76 to 100% throughout.

On to `CCCNC(=O)CN1CCN(c2nc(-c3ccccn3)nc3sc(-c4ccccc4)cc23)CC1` [drawing 2135], for which the inhibition at 30 µM in assay [1] and in assay [2] was 76 to 100% each time.

Consider `Oc1nc(-c2ccccn2)nc2c(-c3ccc(OC4CCOC4)cc3)csc12` (centres unmarked) [drawing 2254], for which the results for the inhibition at 30 µM in assay [1] and in assay [2] were 76 to 100% and 26 to 50%, respectively.

Turning to `Oc1nc(-c2ccccn2)nc2c(-c3ccccc3C(F)F)csc12` [drawing 2275], the inhibition at 30 µM in assay [1] and in assay [2] was 76 to 100% in each case.

For the compound `Oc1nc(-c2ccccn2)nc2c(C3CC3)csc12` [drawing 2345], the inhibition at 30 µM in assay [1] and in assay [2] was 1 to 25% each time.

With `COCCNc1nc(-c2nccn2C)nc2sc(-c3ccccc3)c(-c3ccccn3)c12` [drawing 2449], the inhibition at 30 µM in assay [1] and in assay [2] was 76 to 100% each time.

With `Oc1nc(-c2ccccn2)nc2c(-c3cc(F)cc(F)c3)csc12` [drawing 2292], the inhibition at 30 µM lay in the range of 76 to 100% in assay [1] and 51 to 75% in assay [2].

As to `Oc1nc(-c2ccccn2)nc2c1ncn2-c1ccccn1` [drawing 2124], the inhibition at 30 µM was 26 to 50% in assay [1] and 0% in assay [2].

`COc1ccc(CCNC(=O)c2csc3nc(-c4ccccn4)nc(N4CCS(=O)(=O)CC4)c23)cn1` [drawing 2246]: the results for the inhibition at 30 µM in assay [1] and in assay [2] were 26 to 50% and 0%, respectively.

For the compound `COCCNc1nc(-c2ccccn2)nc2sc(-c3ccccc3)c(-c3ccccn3)c12` [drawing 2447], the inhibition at 30 µM in assay [1] and in assay [2] was 0% throughout.

Take `O=C(Nc1nc(-c2ccccn2)cs1)C1CC(=O)N(c2ccc3c(c2)OCCO3)C1` (centres unmarked) [drawing 2016]: the figures for the inhibition at 30 µM in assay [1] and in assay [2] were 26 to 50% and 1 to 25%, respectively.

Turning to `O=C(COCc1cccnc1)Nc1nc(-c2ccccn2)nc2sccc12` [drawing 2222], the inhibition at 30 µM in assay [1] lay within 51 to 75%; in assay [2], 1 to 25%.

On to `OCCOCCNc1nc(-c2ccccn2)nc2scc(-c3ccccc3)c12` [drawing 2044], for which the inhibition at 30 µM in assay [1] and in assay [2] was 1 to 25% in each case.

As for `Nc1nc(O)c2scc(C(=O)NCCc3cccnc3)c2n1` [drawing 2098], the inhibition at 30 µM in assay [1] and in assay [2] was 1 to 25% each time.

For `O=C(NCCc1cncs1)c1csc2nc(-c3ccccn3)nc(N3CCOCC3)c12` [drawing 2176], the inhibition at 30 µM in assay [1] was 1 to 25%; in assay [2], 0%.

`COc1ccc(-c2c(C)sc3c(O)nc(-c4nccn4C)nc23)cn1` [drawing 2428]: the inhibition at 30 µM in assay [1] and in assay [2] was 1 to 25% throughout.

In the case of `Cc1sc2c(O)nc(-c3nccn3C)nc2c1-c1cccc(C(F)(F)F)c1` [drawing 2426], the inhibition at 30 µM in assay [1] and in assay [2] was 0% each time.

With `Oc1nc(-c2ccccn2)nc2cc(-c3cccc(Br)c3)sc12` [drawing 2391], the inhibition at 30 µM in assay [1] and in assay [2] was 1 to 25% in each case.

Turning to `c1ccc(-c2csc3nc(-c4ccccn4)nc(N4CCN(CCN5CCCC5)CC4)c23)cc1` [drawing 2153], the figures for the inhibition at 30 µM in assay [1] and in assay [2] were 26 to 50% and 0%, respectively.

Turning to `COCCNc1nc(-c2nccn2C)nc2sc(-c3cccc(OC)c3)c(-c3ccccc3)c12` [drawing 2413], the inhibition at 30 µM in assay [1] and in assay [2] was 76 to 100% in each case.

On to `Nc1cccc(-c2csc3c(O)nc(-c4ccccn4)nc23)n1` [drawing 2341], for which the inhibition at 30 µM in assay [1] is 76 to 100%; in assay [2] it was 26 to 50%.

With `CN(CC(=O)Nc1nnc(-c2ccccn2)[nH]1)Cc1ccccc1` [drawing 1988], the inhibition at 30 µM in assay [1] lay in the range of 26 to 50%; in assay [2] it was 1 to 25%.

Take `O=C(c1cc2nc(-c3ccccn3)nc(O)c2s1)N1CCOC(c2ccccc2)C1` (centres unmarked) [drawing 2235]: the inhibition at 30 µM in assay [1] and in assay [2] was 1 to 25% each time.

With `COCC(C)Nc1nc(-c2nccn2C)nc2sc(-c3ccccc3)c(-c3ccccc3)c12` (centres unmarked) [drawing 2404], the inhibition at 30 µM in assay [1] and in assay [2] was 76 to 100% in each case.

As to `CN(CC(=O)Nc1nnc(-c2ccccn2)[nH]1)S(C)(=O)=O` [drawing 1959], the inhibition at 30 µM in assay [1] is 0%; in assay [2], 1 to 25%.

With `Nc1nc(O)c2sc(-c3cccc(C(=O)NCc4cccc(O)n4)c3)cc2n1` [drawing 2373], the inhibition at 30 µM in assay [1] is 51 to 75%; in assay [2] it was 0%.

For `O=C(Cn1c(=O)cnc2ccccc21)Nc1nc(-c2ccccn2)cs1` [drawing 2010], the inhibition at 30 µM in assay [1] is 51 to 75%; in assay [2], 0%.

Turning to `CCc1cc(NNC(=O)c2ccc(C#N)cc2)nc(-c2ccccn2)n1` [drawing 2040], the inhibition at 30 µM in assay [1] and in assay [2] was 76 to 100% throughout.

As for `CC1(N)CCN(C(=O)c2csc3c(O)nc(-c4ccccn4)nc23)CC1` [drawing 2111], the figures for the inhibition at 30 µM in assay [1] and in assay [2] were 1 to 25% and 0%, respectively.

On to `O=C(c1csc2c(O)nc(-c3ccccn3)nc12)N1CCN(c2cccc(F)c2)CC1` [drawing 2179], for which the inhibition at 30 µM in assay [1] was 76 to 100%; in assay [2], 0%.

For the compound `COc1cnc(CNC(=O)c2csc3c(O)nc(-c4ccccn4)nc23)[nH]c1=O` [drawing 2347], the results for the inhibition at 30 µM in assay [1] and in assay [2] were 1 to 25% and 0%, respectively.

As for `NC(=O)C1CCCN1C(=O)c1cccc(-c2cc3nc(N)nc(O)c3s2)c1` (centres unmarked) [drawing 2371], the inhibition at 30 µM in assay [1] and in assay [2] was 0% each time.

For the compound `CCOC(=O)NC1CCN(C(=O)c2csc3c(O)nc(-c4ccccn4)nc23)CC1` [drawing 2112], the figures for the inhibition at 30 µM in assay [1] and in assay [2] were 51 to 75% and 0%, respectively.

Regarding `COCC(C)Nc1nc(-c2ccccn2)nc2sc(-c3ccncc3)c(-c3ccccc3)c12` (centres unmarked) [drawing 2368], the inhibition at 30 µM is 0% in assay [1] and 26 to 50% in assay [2].

In the case of `CCN(CC)CCC(C)Nc1nc(-c2ccccn2)nc2sccc12` (centres unmarked) [drawing 2130], the inhibition at 30 µM was 1 to 25% in assay [1] and 0% in assay [2].

As for `CN(C)Cc1ccc(F)c(-c2csc3c(O)nc(-c4ccccn4)nc23)c1` [drawing 2293], the inhibition at 30 µM in assay [1] fell in the range of 76 to 100%; in assay [2], 51 to 75%.

`NC(=O)C1CCCN(c2nc(-c3ccccn3)nc3scc(-c4ccccc4)c23)C1` (centres unmarked) [drawing 2160]: the inhibition at 30 µM in assay [1] and in assay [2] was 1 to 25% each time.

As for `Cn1cnc(-c2nc(O)c3scc(-c4cccc(C(F)(F)F)c4)c3n2)c1` [drawing 2431], the inhibition at 30 µM in assay [1] and in assay [2] was 0% throughout.

Take `N#CCc1ccc(OCC(=O)Nc2nnc(-c3ccccn3)[nH]2)cc1` [drawing 1998]: the inhibition at 30 µM in assay [1] was 0%; in assay [2] it was 1 to 25%.

As for `COCC(C)Nc1nc(-c2ccccn2)nc2sc(C)c(-c3ccccc3)c12` (centres unmarked) [drawing 2039], the inhibition at 30 µM in assay [1] and in assay [2] was 76 to 100% each time.

Consider `O=C(CCc1cnn(-c2ccccc2)c1)Nc1nnc(-c2ccccc2)[nH]1`, for which the inhibition at 30 µM in assay [1] lay within 26 to 50%; in assay [2] it was 1 to 25%.

`Oc1nc(-c2ccccn2)nc2c(C3CCCCC3)csc12` [drawing 2336]: the inhibition at 30 µM in assay [1] and in assay [2] was 0% each time.

For `COc1nc(-c2ccccn2)nc2c(C3CCCC3)csc12` [drawing 2309], the inhibition at 30 µM in assay [1] and in assay [2] was 0% throughout.

In the case of `O=C(Cc1cccc(F)c1)Nc1nnc(-c2ccccn2)[nH]1` [drawing 1960], the inhibition at 30 µM in assay [1] was 1 to 25%; in assay [2] it was 0%.

Turning to `COC1CC(CNc2nc(-c3ccccn3)nc3scc(-c4ccccc4)c23)CCC1OCC(N)=O` (centres unmarked), the inhibition at 30 µM in assay [1] and in assay [2] was 76 to 100% in each case.

In the case of `O=C(c1ccc2ccccc2n1)N1CCCc2c(O)nc(-c3ccccn3)nc21` [drawing 2075], the inhibition at 30 µM lay in the range of 76 to 100% in assay [1] and 1 to 25% in assay [2].

For `Oc1nc(-c2ccccn2)nc2c(-c3ccc(OC4CCOCC4)cc3)csc12` [drawing 2259], the results for the inhibition at 30 µM in assay [1] and in assay [2] were 76 to 100% and 0%, respectively.

As to `O=C(c1csc2c(O)nc(-c3ccccn3)nc12)N1CCOC(Cc2ccccc2)C1` (centres unmarked) [drawing 2195], the inhibition at 30 µM was 76 to 100% in assay [1] and 0% in assay [2].

Regarding `Cn1ccnc1-c1nc(O)c2sc(-c3ccccc3)c(-c3cccc(C(F)(F)F)c3)c2n1` [drawing 2419], the inhibition at 30 µM in assay [1] and in assay [2] was 26 to 50% in each case.

Consider `CC(C1CC1)N(CC(F)(F)F)C(=O)Cc1ccc(-c2ccccc2)cc1` (centres unmarked) [drawing 2064], for which the inhibition at 30 µM in assay [1] and in assay [2] was 1 to 25% throughout.
